Measurements from paper PMC12635197, “Discovery of first-in-class inhibitors of the TRF1:TIN2 protein:protein interaction by fragment screening” (Scientific Reports, 2025).

Assays:
[1] = target: T1, TRF1TRFH:TIN2-FAM interaction (Homo sapiens, UniProt P54274); assay: Fluorescence polarisation (FP) competition assay, TIN2-FAM displacement; assay type: binding; conditions: 0.6 µM TRF1TRFH, 25 nM TIN2-FAM; mean of three independent experiments, 95% CI in parentheses
T1 construct: encoding residues 47–268, UniProt identifier P54274-1; His6-MBP (TEV-cleavable) (N, cleaved yes); made in house; host or cells: E. coli BL21-CodonPlus(DE3)-RIL (TRF1TRFH); probe peptide from Pepceuticals
T1 sequence (P54274 47-268): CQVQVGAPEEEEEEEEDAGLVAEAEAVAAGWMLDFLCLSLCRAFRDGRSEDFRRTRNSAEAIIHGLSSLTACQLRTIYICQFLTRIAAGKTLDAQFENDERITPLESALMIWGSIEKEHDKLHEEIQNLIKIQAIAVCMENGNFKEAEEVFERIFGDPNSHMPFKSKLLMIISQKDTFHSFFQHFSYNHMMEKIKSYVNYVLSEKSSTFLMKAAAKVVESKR
Protocol: To complement the biophysical R2KD assay, we developed a fluorescence polarisation (FP) competition assay based on a TIN2TBM peptide labelled with an N-terminal 5(6)-carboxyfluorescein (6-FAM) fluorophore. […] The NMR hit analogues were then titrated against constant concentrations of TRF1TRFH and TIN2-FAM (0.6 µM and 25 nM, respectively).
A TIN2TBM peptide was obtained from Pepceuticals with a 5(6)-carboxyfluorescein (FAM) fluorophore added to the N-terminus for fluorescence studies. To determine the assay window for the FP assay, the TIN2-FAM probe was prepared as a 16-µM stock in aqueous buffer and titrated from 0 to 400 nM against either a constant concentration of TRF1TRFH (0.5 µM in FP buffer) or FP buffer alone (25 mM HEPES-NaOH pH 7.5, 100 mM NaCl, 1 mM TCEP, 0.05% w/v CHAPS). Samples were prepared to a final volume of 10 µL in Packard Proxiplate 384 F plus plates; plates were incubated in darkness at room temperature for 1 h prior to measuring fluorescence intensities and calculating FP values, using a BMG Labtech PHERAstar FSX plate reader with an FP 485 520 520 optic module. A settling time of 0.3 s was used, and the number of flashes was set to 200 for FP measurements. For each plate, a target mP of 35 was set and the gain adjusted on the TIN2-FAM probe control well minus protein.
For the FP competition assay, the unlabelled compounds (from 50-mM DMSO stocks) were first dispensed in duplicate into wells of a Proxiplate 384 F Plus plate using an Echo 550 acoustic liquid handler to give a 13-point concentration range from 0.2 to 500 µM. Wells were then backfilled to 250 nL with DMSO before the addition of 5 µL of 2x TRF1TRFH (0.6 µM final concentration) and 4.75 µL 2x TIN2-FAM (25 nM final concentration). Plates were spun and sealed prior to incubation for 1 h in darkness. FP measurements were then carried out as described above.

[2] = Fragment solubility assay (quantitative 1H NMR); assay type: physicochemical; conditions: NMR buffer, overnight incubation, 1H NMR quantified against 1 mM caffeine standard

COc1cc(COc2ccc(S(=O)(=O)[O-])c3ccccc23)cc(OC)c1.[Na+] [Compound 40]
IC50 [1]: 67 µM | Kin. Sol. [2]: 320 µM
